Test system: 885724-159-R-J1-PDC KRAS PDC multicell spheroid viability
Test: Anticancer human tumor 885724-159-R-J1-PDC patient-derived pancreatic adenocarcinoma cell line growth inhibition [KRAS2]
Settings: for viability, T/C: stronger effect = lower value
In short: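 KRAS-mutant tumor cells were grown as spheroids with HUVEC endothelial cells and human MSCs as stroma. Targeted agents were tested alone and with KRAS pathway inhibitors. Doses started at or near clinical Cmax, or 10 microM, descending half-log.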

[1] = curve of first compound, second compound 0.1 µM
[2] = curve of first compound, second compound 0.316 µM
[3] = curve of first compound, second compound 1 µM
[4] = curve of first compound, second compound 3.16 µM
[5] = curve of first compound, second compound 10 µM
[6] = second compound 0.1 µM, first compound 0.0316 µM
[7] = second compound 0.1 µM, first compound 0.1 µM
[8] = second compound 0.1 µM, first compound 0.316 µM
[9] = second compound 0.1 µM, first compound 1 µM
[10] = second compound 0.1 µM, first compound 3.16 µM
[11] = second compound 0.1 µM, first compound 10 µM
[12] = second compound 0.316 µM, first compound 0.0316 µM
[13] = second compound 0.316 µM, first compound 0.1 µM
[14] = second compound 0.316 µM, first compound 0.316 µM
[15] = second compound 0.316 µM, first compound 1 µM
[16] = second compound 0.316 µM, first compound 3.16 µM
[17] = second compound 0.316 µM, first compound 10 µM
[18] = second compound 1 µM, first compound 0.0316 µM
[19] = second compound 1 µM, first compound 0.1 µM
[20] = second compound 1 µM, first compound 0.316 µM
[21] = second compound 1 µM, first compound 1 µM
[22] = second compound 1 µM, first compound 3.16 µM
[23] = second compound 1 µM, first compound 10 µM
[24] = second compound 3.16 µM, first compound 0.0316 µM
[25] = second compound 3.16 µM, first compound 0.1 µM
[26] = second compound 3.16 µM, first compound 0.316 µM
[27] = second compound 3.16 µM, first compound 1 µM
[28] = second compound 3.16 µM, first compound 3.16 µM
[29] = second compound 3.16 µM, first compound 10 µM
[30] = second compound 10 µM, first compound 0.0316 µM
[31] = second compound 10 µM, first compound 0.1 µM
[32] = second compound 10 µM, first compound 0.316 µM
[33] = second compound 10 µM, first compound 1 µM
[34] = second compound 10 µM, first compound 3.16 µM
[35] = second compound 10 µM, first compound 10 µM
[36] = curve of first compound, second compound 0.0316 µM
[37] = second compound 0.0316 µM, first compound 0.0316 µM
[38] = second compound 0.0316 µM, first compound 0.1 µM
[39] = second compound 0.0316 µM, first compound 0.316 µM
[40] = second compound 0.0316 µM, first compound 1 µM
[41] = second compound 0.0316 µM, first compound 3.16 µM
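Note: spheroids exposed to agents for 7 days before readout.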

SMILES | IC50 [1] [µM] | IC50 [2] [µM] | IC50 [3] [µM] | IC50 [4] [µM] | viability, T/C [6] [%] | viability, T/C [7] [%] | viability, T/C [8] [%] | viability, T/C [9] [%] | viability, T/C [10] [%] | viability, T/C [12] [%] | viability, T/C [13] [%] | viability, T/C [14] [%] | viability, T/C [15] [%] | viability, T/C [16] [%] | viability, T/C [18] [%] | viability, T/C [19] [%] | viability, T/C [20] [%] | viability, T/C [21] [%] | viability, T/C [22] [%] | viability, T/C [24] [%] | also measured
CC(C)NCC(C(=O)N1CCN(c2ncnc3c2C(C)CC3O)CC1)c1ccc(Cl)cc1 (centres undefined) + CC1OCC2(CCN(c3cnc(Sc4ccnc(N)c4Cl)c(N)n3)CC2)C1N | 8.34 | 5.81 | 2.21 | 0.524 | 77.6 | 72.6 | 64.5 | 65.5 | 63.8 | 72.5 | 60.3 | 58.9 | 61.5 | 59.7 | 67.8 | 62.1 | 55 | 51.4 | 54.4 | 57.1 | IC50 [5]: 0.1 µM; viability, T/C [11]: 45.9%; viability, T/C [17]: 42.7%; viability, T/C [23]: 41.7%; viability, T/C [25]: 55.6%; viability, T/C [26]: 46.2%; viability, T/C [27]: 47.5%; viability, T/C [28]: 46.5%; viability, T/C [29]: 32.2%; viability, T/C [30]: 56.4%; viability, T/C [31]: 49.6%; viability, T/C [32]: 42.4%; viability, T/C [33]: 37%; viability, T/C [34]: 36.2%; viability, T/C [35]: 21.8%
COC(=O)c1ccc2c(C(=Nc3ccc(N(C)C(=O)CN4CCN(C)CC4)cc3)c3ccccc3)c(O)[nH]c2c1 + C=CC(=O)N1CCN(c2nc(OCC3CCCN3C)nc3c2CCN(c2cccc4cccc(C)c24)C3)CC1CC#N | 1.86 | 1.71 | 1.68 | 0.431 | 100 | 97 | 98.5 | 85.1 | 19.9 | 100 | 100 | 91.5 | 83.8 | 11.3 | 90.4 | 91.4 | 85.9 | 84.5 | 7.97 | 58.4 | IC50 [36]: 2.08 µM; viability, T/C [37]: 100%; viability, T/C [38]: 104%; viability, T/C [39]: 101%; viability, T/C [40]: 94.5%; viability, T/C [41]: 24.4%; viability, T/C (second compound 0.0316 µM, first compound 10 µM): 0.81%; viability, T/C [11]: 0.65%; viability, T/C [17]: 0.77%; viability, T/C [23]: 0.43%; viability, T/C [25]: 51.1%; viability, T/C [26]: 54.1%; viability, T/C [27]: 38%; viability, T/C [28]: 1.11%; viability, T/C [29]: 0.32%
COC(=O)c1ccc2c(C(=Nc3ccc(N(C)C(=O)CN4CCN(C)CC4)cc3)c3ccccc3)c(O)[nH]c2c1 | – | – | – | – | – | – | – | – | – | – | – | – | – | – | – | – | – | – | – | – | viability, T/C (compound 0.0316 µM): 99.8% [middle of 5 runs]; viability, T/C (compound 0.1 µM): 103% [middle of 5 runs]; viability, T/C (compound 0.316 µM): 98.2% [middle of 5 runs]; viability, T/C (compound 1 µM): 103% [middle of 5 runs]; viability, T/C (compound 3.16 µM): 29.4% [middle of 5 runs]; viability, T/C (compound 10 µM): 0.61% [middle of 5 runs]; IC50 (curve of compound): 2.26 µM [middle of 5 runs]
CC1OCC2(CCN(c3cnc(Sc4ccnc(N)c4Cl)c(N)n3)CC2)C1N (centres undefined) + COc1cc2nc(C)nc(NC(C)c3cc(N)cc(C(F)(F)F)c3)c2cc1OC1CCOC1 | > 10 | > 10 | > 10 | > 10 | 90 | 84.8 | 76.7 | 67.1 | 62.1 | 93.4 | 82.7 | 73.2 | 67.6 | 57.2 | 83.4 | 82.5 | 70 | 62.7 | 57 | 76.5 | IC50 [5]: < 0.0316 µM; viability, T/C [11]: 53.7%; viability, T/C [17]: 54.7%; viability, T/C [23]: 51.4%; viability, T/C [25]: 73.1%; viability, T/C [26]: 69.6%; viability, T/C [27]: 59%; viability, T/C [28]: 55.1%; viability, T/C [29]: 51.6%; viability, T/C [30]: 22.7%; viability, T/C [31]: 21.7%; viability, T/C [32]: 19.5%; viability, T/C [33]: 13.1%; viability, T/C [34]: 13.5%; viability, T/C [35]: 5.33%
CC(C)NCC(C(=O)N1CCN(c2ncnc3c2C(C)CC3O)CC1)c1ccc(Cl)cc1 (centres undefined) + COc1cc2nc(C)nc(NC(C)c3cc(N)cc(C(F)(F)F)c3)c2cc1OC1CCOC1 | > 10 | > 10 | > 10 | 8.31 | 86.3 | 77.1 | 75.7 | 71.6 | 74.6 | 88.8 | 87.2 | 70.5 | 70.3 | 75.7 | 86.4 | 77.5 | 69.1 | 70.8 | 71.6 | 76.7 | IC50 [5]: < 0.0316 µM; viability, T/C [11]: 56.8%; viability, T/C [17]: 57.7%; viability, T/C [23]: 56.4%; viability, T/C [25]: 72.3%; viability, T/C [26]: 66%; viability, T/C [27]: 71.3%; viability, T/C [28]: 76.9%; viability, T/C [29]: 45.8%; viability, T/C [30]: 39.2%; viability, T/C [31]: 37.5%; viability, T/C [32]: 26.9%; viability, T/C [33]: 20.8%; viability, T/C [34]: 11.5%; viability, T/C [35]: 6.18%
O=C(c1cc(Cc2n[nH]c(=O)c3ccccc23)ccc1F)N1CCN(C(=O)C2CC2)CC1 + CNCc1ccccc1-c1csc(C(C)Nc2nc(C)nc3cc(OC)c(OC)cc23)c1 | > 10 | > 10 | > 10 | < 0.0316 | 110 | 112 | 98.4 | 101 | 96.2 | 107 | 107 | 103 | 96.4 | 94.6 | 105 | 112 | 104 | 95.7 | 91.9 | 1.34 | IC50 [5]: < 0.0316 µM; viability, T/C [11]: 84.7%; viability, T/C [17]: 81.7%; viability, T/C [23]: 81.8%; viability, T/C [25]: 1.56%; viability, T/C [26]: 0.78%; viability, T/C [27]: 0.88%; viability, T/C [28]: 1%; viability, T/C [29]: 1.09%; viability, T/C [30]: 0.23%; viability, T/C [31]: 0.26%; viability, T/C [32]: 0.21%; viability, T/C [33]: 0.28%; viability, T/C [34]: 0.28%; viability, T/C [35]: 0.68%
CC(=O)OC12COC1CC(O)C1(C)C(=O)C(O)C3=C(C)C(OC(=O)C(O)C(NC(=O)OC(C)(C)C)c4ccccc4)CC(O)(C(OC(=O)c4ccccc4)C21)C3(C)C (centres undefined) + C=CC(=O)N1CCN(c2nc(OCC3CCCN3C)nc3c2CCN(c2cccc4cccc(C)c24)C3)CC1CC#N | > 3.16 | > 3.16 | > 3.16 | > 3.16 | 94.9 | 97 | 106 | 116 | 115 | 97.5 | 92.8 | 101 | 115 | 103 | 86.9 | 91.8 | 96.7 | 99.2 | 96.7 | 100 | IC50 [36]: > 3.16 µM; viability, T/C (second compound 0.0316 µM, first compound 0.01 µM): 86.9%; viability, T/C [37]: 95.8%; viability, T/C [38]: 102%; viability, T/C [39]: 101%; viability, T/C [40]: 110%; viability, T/C [41]: 109%; viability, T/C (second compound 0.1 µM, first compound 0.01 µM): 87.5%; viability, T/C (second compound 0.316 µM, first compound 0.01 µM): 85.5%; viability, T/C (second compound 1 µM, first compound 0.01 µM): 82.6%; viability, T/C (second compound 3.16 µM, first compound 0.01 µM): 87.2%; viability, T/C [25]: 99.6%; viability, T/C [26]: 105%; viability, T/C [27]: 111%; viability, T/C [28]: 115%
CC1COCCN1c1cc(-c2ccnn2C)c2ccnc(-c3ccn[nH]3)c2n1 (centres undefined) | – | – | – | – | – | – | – | – | – | – | – | – | – | – | – | – | – | – | – | – | viability, T/C (compound 0.01 µM): 107% [middle of 5 runs]; viability, T/C (compound 0.0316 µM): 90.6% [middle of 5 runs]; viability, T/C (compound 0.1 µM): 69.9% [middle of 5 runs]; viability, T/C (compound 0.316 µM): 62.3% [middle of 5 runs]; viability, T/C (compound 1 µM): 56.6% [middle of 5 runs]; viability, T/C (compound 3.16 µM): 58.2% [middle of 5 runs]; IC50 (curve of compound): > 3.16 µM

Source: PubChem BioAssay AID1963861 (Molecular Pharmacology Branch, DTP, NCI, 2024)
